# According to patent US8507547B2, “Anti-fatigue agents and oral compositions containing andrographolide as active ingredient” (Suntory Holdings Limited, priority 2007, dated 2013):
# System: Sprague Dawley rats
# Test: Forced exercise test (amount of spontaneous exercise after treadmill exercise stress)
# Assay type: in vivo
# Conditions: 2 mg per kilogram of body weight orally after 3 hours treadmill exercise stress; FIG. 3
# Protocol: The third test is measurement of an amount of spontaneous exercise in a forced exercise test. This is described in detail below in Example 3. Rats were forced to exercise on a treadmill, and thereafter the test substance was administered. Then, the amount of spontaneous exercise of the animal was measured. Since this animal model is an exercise fatigue (physical fatigue) model, anti-fatigue action against physical fatigue would be confirmed if increase in the amount of spontaneous exercise is observed after the administration of the test substance. Such anti-fatigue action is considered to be involved in improving endurance and exercise performance.
# Six-week-old male Sprague Dawley rats were used as a test animal. On the day before the test was started, the rats were divided into five groups each having eight rats, and all of the rats were deprived of food since the morning of the test day. […] Thereafter, the rats were moved into a spontaneous exercise measuring device having an infrared sensor (Supermex, Muromachi Kikai Co., Ltd.), and an amount of spontaneous exercise was measured during a period of 0-2 hours (exploration) and a period of 2-14 hours (dark period). […]
smiles,measurement,value
C=C1CC[C@@H]2[C@](C)(CO)[C@H](O)CC[C@@]2(C)[C@@H]1C/C=C1/C(=O)OC[C@H]1O [andrographolide],amount of spontaneous exercise,increase in the amount of spontaneous exercise was observed
